According to patent US20240010726A1, “LFA-1 SIGNALLING MEDIATOR FOR USE IN CANCER THERAPY” (Universität Basel, priority 2020, published 2024):

Tests used:
PC3-PIP tumor cells = assay: Anti-PSMA CAR T cell in vivo experiment with Mg2+-restricted diet; design: species or system NSG mice; details: Mg^2+-depleted diet vs control diet; anti-PSMA CAR T cells i.v.
Method: FIG. 3: Magnesium regulates LFA-1 mediated T cell activation and cytotoxicity as well BiTE- and CAR T-cell functionality. (a) Glycolytic switch of murine WT and LFA-1^−/− CTLs upon injection of anti-CD3/28 Ab in medium containing 1.2 mM Mg^2+ and 0 mM Mg^2+, presented as quantification of summarized data with n=4 mice. (b) Calcium flux in WT and LFA-1^−/− Jurkat T cells stimulated with anti-CD3 Ab in 1.2 mM and 0 mM Mg^2+ medium, respectively. Cells were loaded with Fluo4, and signal intensity as recorded by plate reader, was normalized to unstimulated baseline values. […] Quantified results of n=3 mice with 3 technical replicates each. […] The effector to target cell ratio was 3:1. Results are quantified of n=3 mice with 3 technical replicates each. (e) Representative CD11a (LFA-1) surface expression on human naïve and EM CD8 T cells, PHA T cell blasts and REP T cells, assessed by flow cytometry. […] Data is presented as quantified results of n=5 healthy donors (f, g, h), n=3 healthy donors with 2 technical replicates each or n=1 healthy donor with 4 technical replicates (j). […] Data is presented as quantified results of n=1 healthy donor with 4 technical replicates. […] (p) Abundance of IFNγ in cell culture supernatants corresponding to the conditions depicted in (o) at 24 hours was determined by ELISA (n=8, 3 independent experiments). […] Tumor volume was monitored twice per week. […]

REP T cells = assay: FAK phosphorylation and CD107a degranulation of REP T cells co-incubated with T2 target cells; type: cell-based, human; details: pulsed T2 target cells; presence vs absence of extracellular Mg^2+
Method: FIG. 3: Magnesium regulates LFA-1 mediated T cell activation and cytotoxicity as well BiTE- and CAR T-cell functionality. (a) Glycolytic switch of murine WT and LFA-1^−/− CTLs upon injection of anti-CD3/28 Ab in medium containing 1.2 mM Mg^2+ and 0 mM Mg^2+, presented as quantification of summarized data with n=4 mice. (b) Calcium flux in WT and LFA-1^−/− Jurkat T cells stimulated with anti-CD3 Ab in 1.2 mM and 0 mM Mg^2+ medium, respectively. Cells were loaded with Fluo4, and signal intensity as recorded by plate reader, was normalized to unstimulated baseline values. […] Quantified results of n=3 mice with 3 technical replicates each. (d) Caspase-3 activity in EL4 target cells after co-culture with murine WT and LFA-1^−/− CTLs under the conditions as in (c) for 4 hours, in presence of 10 μg/ml PHA. The effector to target cell ratio was 3:1. Results are quantified of n=3 mice with 3 technical replicates each. (e) Representative CD11a (LFA-1) surface expression on human naïve and EM CD8 T cells, PHA T cell blasts and REP T cells, assessed by flow cytometry. Flow cytometry-based assessment of inactivate LFA-1 with bent conformation (f), extended conformation with β2 leg extension (g), LFA-1 with open head-piece (h), phosphorylation of FAK, expression of degranulation marker CD107a (j) on REP T cells after co-incubation with T2 target cells (pulsed with 10^−8 M 9c peptide) in same condition as in (c). The effector to target cell ratio was 1:1. Data is presented as quantified results of n=5 healthy donors (f, g, h), n=3 healthy donors with 2 technical replicates each or n=1 healthy donor with 4 technical replicates (j). […] Data is presented as quantified results of n=1 healthy donor with 4 technical replicates. […] Cytotoxicity is reported as total area under the curve of the fluorescence driven by incorporation of cytotoxic green reagent in dead target cells (green area per μm^2). […] (p) Abundance of IFNγ in cell culture supernatants corresponding to the conditions depicted in (o) at 24 hours was determined by ELISA (n=8, 3 independent experiments). […]

For [Mg+2] [Mg^2+, Magnesium], the “CAR T cell-mediated tumor rejection (tumor growth)” value (PC3-PIP tumor cells) was “negatively impacted CAR T cell-mediated tumor-rejection”, the “Degranulation (CD107a) of REP T cells” value (REP T cells) was “significantly increased” and the “FAK phosphorylation in REP T cells” value (REP T cells) was “significantly increased”.
